Data from patent US12358915B2, “METTL3 inhibitory compounds” (STORM THERAPEUTICS LTD., priority 2019, dated 2025).
pIC50: −log10 of the molar value. Where two headings read alike, the source gives them in different places. Values belong to the compound of their own block, whether it stands above or below them.

Legend:
MOLM-13 cells = assay: MOLM13 CTG - analysis of cell proliferation (Cell Titre Glo); assay type: cell-based; conditions: Homo sapiens, geometric mean, read-out: CTG MOLM13 cells IC50 GEOMEAN
METTL3/14 = biological target: T1, METTL3/14 (Homo sapiens, UniProt Q86U44); assay: METTL3/14 methyltransferase assay (METTL3_14 RFMS, RapidFire mass spectrometry); assay type: biochemical;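 also: recombinant His-tagged METTL3 with FLAG-tagged METTL14 from baculovirus, SAH product quantified by mass spectrometry against isotope-labelled internal standards, 60 min at room temperature, scaled between no-RNA and DMSO-only wells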
T1 construct: The enzyme used was full-length his-tagged METTL3; His; made in house
T1 sequence (Q86U44 whole entry): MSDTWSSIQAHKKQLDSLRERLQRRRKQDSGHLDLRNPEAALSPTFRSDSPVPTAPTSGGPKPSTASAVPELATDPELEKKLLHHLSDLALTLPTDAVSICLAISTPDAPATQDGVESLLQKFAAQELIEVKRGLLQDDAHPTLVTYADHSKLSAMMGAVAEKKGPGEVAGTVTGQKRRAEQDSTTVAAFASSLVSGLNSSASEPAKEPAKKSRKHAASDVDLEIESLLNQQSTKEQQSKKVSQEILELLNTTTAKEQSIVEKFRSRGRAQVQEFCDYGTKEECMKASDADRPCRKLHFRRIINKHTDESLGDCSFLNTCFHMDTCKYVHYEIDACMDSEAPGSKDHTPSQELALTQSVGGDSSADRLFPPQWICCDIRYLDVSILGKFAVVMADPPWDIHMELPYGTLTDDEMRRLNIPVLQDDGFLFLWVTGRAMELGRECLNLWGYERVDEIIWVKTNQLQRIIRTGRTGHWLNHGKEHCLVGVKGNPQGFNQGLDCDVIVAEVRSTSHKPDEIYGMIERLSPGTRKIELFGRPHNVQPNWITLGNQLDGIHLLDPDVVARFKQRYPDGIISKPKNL
T1 sequence (Q9HCE5 whole entry partner): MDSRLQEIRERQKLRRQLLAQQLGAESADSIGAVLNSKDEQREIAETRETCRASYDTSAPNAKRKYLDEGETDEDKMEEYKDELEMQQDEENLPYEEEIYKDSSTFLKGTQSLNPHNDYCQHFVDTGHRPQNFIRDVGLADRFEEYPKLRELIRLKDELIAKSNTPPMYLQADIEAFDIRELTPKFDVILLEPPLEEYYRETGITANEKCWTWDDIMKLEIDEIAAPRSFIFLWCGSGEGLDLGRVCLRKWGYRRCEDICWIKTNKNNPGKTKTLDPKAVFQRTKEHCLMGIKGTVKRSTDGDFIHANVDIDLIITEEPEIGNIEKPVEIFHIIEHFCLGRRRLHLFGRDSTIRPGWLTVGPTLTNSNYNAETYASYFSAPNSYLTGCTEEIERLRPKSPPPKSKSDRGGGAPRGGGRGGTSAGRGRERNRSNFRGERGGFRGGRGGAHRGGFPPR
Experimental: The enzyme used was full-length his-tagged METTL3 co-expressed with full length FLAG-tagged METTL14 in a baculovirus expression system. […] After termination, plates were sealed, centrifuged and stored at 4° C. until analysis. […] Mass Spectrometry Analysis RNA methyltransferase activity was measured label free using the RapidFireTM mass spectrometry (RF/MS) platform. Stopped and stable assay plates were analyzed on the Agilent RF300 integrated autosampler/solid-phase extraction (SPE) system coupled to an ABSciex 4000 mass spectrometer for the generation of the product S-adenosyl homocysteine (SAH) and normalized to the ratio of signal of the two internal product standards, respectively. Solvent A was water containing 0.1% (v/v) TCA. Solvent B was acetonitrile/0.1% ammonium acetate (8:2, v/v). More specifically, plates were centrifuged at 4350 rpm for 10 min, samples were aspirated under vacuum for 600 ms, then loaded onto a C18 solid-phase extraction cartridge and washed for 3 s with solvent A at a flow rate of 1.5 mL/min. Retained product and internal standards were eluted with solvent B at a flow rate of 1 mL/min for 3 s and finally the cartridge was reequilibrated with solvent A for 500 ms.

[1] = 5 nM METTL3/14, 0.2 μM RNA substrate, 0.5 μM SAM, lower limit of the assay IC50=5 nM, Compounds 266-351, read-out: METTL3_14 RFMS IC50
[2] = 5 nM METTL3/14, 0.2 μM RNA substrate, 0.5 μM SAM, lower limit of the assay IC50=5 nM, Compounds 63-265, read-out: METTL3_14 RFMS IC50
[3] = 5 nM METTL3/14, 0.2 μM RNA substrate, 0.5 μM SAM, lower limit of the assay IC50=5 nM, Compounds 1-62, read-out: METTL3_14 RFMS IC50

pIC50 (MOLM-13 cells): 5.33 | pIC50 (METTL3/14; [1]): 7.89
SMILES: CC[C@H](C)CNCc1ccc2nc(CNC(=O)c3cc(=O)n4ccccc4n3)cn2c1 [Compound 293, N-[[6-[[[(2S)-2-methylbutyl]amino]methyl]imidazo[1,2-a]pyridin-2-yl]methyl]-4-oxo-pyrido[1,2-a]pyrimidine-2-carboxamide]

pIC50 (MOLM-13 cells): ≤ 4.52 | pIC50 (METTL3/14; read-out: METTL3_14 RFMS IC50): 7.31
SMILES: O=C(NCc1cn2cc(CNCC34CC(C(F)(F)F)(C3)C4)ccc2n1)c1cc(=O)n2ccccc2n1 [Compound 87, 4-oxo-N-({6-[({[3-(trifluoromethyl)bicyclo[1.1.1]pentan-1-yl]methyl}amino)methyl]imidazo[1,2-a]pyridin-2-yl}methyl)-4H-pyrido [1,2-a]pyrimidine-2-carboxamide]

pIC50 (MOLM-13 cells): 5.55 | pIC50 (METTL3/14; [2]): 6.68
SMILES: OCc1ccc2nc(Cn3cc(-c4cc(Br)cc5[nH]ncc45)nn3)cn2c1 [Example 253, (2-{[4-(6-bromo-1H-indazol-4-yl)-1H-1,2,3-triazol-1-yl]methyl}imidazo[1,2-a]pyridin-6-yl)methanol]

pIC50 (MOLM-13 cells): ≤ 4.52 | pIC50 (METTL3/14; [1]): 7.01
SMILES: COC(C)(C)CNCc1ccc2nc(CNC(=O)c3cc(=O)n4ccccc4n3)cn2c1 [Compound 281, N-[[6-[[(2-methoxy-2-methyl-propyl)amino]methyl]imidazo[1,2-a]pyridin-2-yl]methyl]-4-oxo-pyrido[1,2-a]pyrimidine-2-carboxamide]

pIC50 (METTL3/14; [1]): 7.19
SMILES: c1cc(-c2ncn(Cc3cn4cc(CNCC5CCC5)ccc4n3)n2)c2cn[nH]c2c1 [Example 341, N-(cyclobutylmethyl)-1-[2-[[3-(1H-indazol-4-yl)-1,2,4-triazol-1-yl]methyl]imidazo[1,2-a]pyridin-6-yl]methanamine]

pIC50 (METTL3/14; [1]): 7.21
SMILES: CC1(C)CC(CNCc2ccc3nc(CNC(=O)c4cc(=O)n5ccccc5n4)cn3c2)C1 [Compound 291, N-[[6-[[(3,3-dimethylcyclobutyl)methylamino]methyl]imidazo[1,2-a]pyridin-2-yl]methyl]-4-oxo-pyrido[1,2-a]pyrimidine-2-carboxamide]

pIC50 (METTL3/14; [3]): 5.65
SMILES: Cc1ccn2cc(CNC(=O)c3cc(=O)n4ccccc4n3)nc2c1 [Compound 17, N-({7-methylimidazo[1,2-a]pyridin-2-yl}methyl)-4-oxo-4H-pyrido[1,2-a]pyrimidine-2-carboxamide]

pIC50 (METTL3/14; [3]): 5.03
SMILES: O=C(c1cccc2[nH]ncc12)N1CC=C(c2cn3ccccc3n2)C1 [Compound 31, 4-(3-{imidazo[1,2-a]pyridin-2-yl}-2,5-dihydro-1H-pyrrole-1-carbonyl)-1H-indazole]

pIC50 (METTL3/14; [2]): 5.24
SMILES: O=C(NCc1cn2cc(CN3CCCC(F)(F)C3)ccc2n1)c1cc(=O)n2ccccc2n1 [Compound 208, N-({6-[(3,3-difluoropiperidin-1-yl)methyl]imidazo[1,2-a]pyridin-2-yl}methyl)-4-oxo-4H-pyrido [1,2-a]pyrimidine-2-carboxamide]

pIC50 (METTL3/14; [1]): 8.11
SMILES: O=C(NCc1cn2cc(CNCC3CC4C=CC3C4)ccc2n1)c1cc(=O)n2ccccc2n1 (stereo not drawn) [Compound 346, N-[(6-{[({bicyclo[2.2.1]hept-5-en-2-yl}methyl)amino]methyl}imidazo[1,2-a]pyridin-2-yl)methyl]-4-oxo-4H-pyrido[1,2-a]pyrimidine-2-carboxamide]

pIC50 (METTL3/14; [3]): 5.32
SMILES: O=C(NCc1cn2cc(Nc3cccnc3)ccc2n1)c1cccc2[nH]ncc12 [Compound 37, N-({6-[(pyridin-3-yl)amino]imidazo[1,2-a]pyridin-2-yl}methyl)-1H-indazole-4-carboxamide]

pIC50 (METTL3/14; [2]): 7.36
SMILES: O=C(NCc1cn2cc(CNCC3CCCCC3)ccc2n1)c1cc(Br)cc2[nH]ncc12 [Compound 187, 6-bromo-N-[(6-{[(cyclohexylmethyl)amino]methyl}imidazo[1,2-a]pyridin-2-yl)methyl]-1H-indazole-4-carboxamide]

pIC50 (METTL3/14; [2]): 7.27
SMILES: C[C@H](NCc1ccc2nc(CNC(=O)c3cc(=O)n4ccccc4n3)cn2c1)C(C)(C)C [Compound 215, N-{[6-({[(2S)-3,3-dimethylbutan-2-yl]amino}methyl)imidazo[1,2-a]pyridin-2-yl]methyl}-4-oxo-4H-pyrido [1,2-a]pyrimidine-2-carboxamide]

pIC50 (METTL3/14; [1]): 6.63
SMILES: O=C(NCCO)c1cc(-c2cn(Cc3cn4cc(CNCC5CCC5)ccc4n3)nn2)c2cn[nH]c2c1 [Example 301]

pIC50 (METTL3/14; [3]): 5.57
SMILES: COc1ccn2cc(CNC(=O)c3cccc4[nH]ncc34)nc2c1 [Compound 7, N-({7-methoxyimidazo[1,2-a]pyridin-2-yl}methyl)-1H-indazole-4-carboxamide]

Further lines, the compound ahead of its results:

SMILES: CN(C)C(=O)c1cc(-c2cn(Cc3cn4cc(CNCC5CCC5)ccc4n3)nn2)c2cn[nH]c2c1 [Example 299, 4-[1-[[6-[(cyclobutylmethylamino)methyl]imidazo[1,2-a]pyridin-2-yl]methyl]triazol-4-yl]-N,N-dimethyl-1H-indazole-6-carboxamide]
pIC50 (MOLM-13 cells): ≤ 4.52 | pIC50 (METTL3/14; [1]): 6.95

SMILES: OC1(CNCc2ccc3nc(Cn4cc(-c5cc(F)cc6[nH]ncc56)nn4)cn3c2)CCC1 [Example 319, 1-[[[2-[[4-(6-fluoro-1H-indazol-4-yl)triazol-1-yl]methyl]imidazo[1,2-a]pyridin-6-yl]methylamino]methyl]cyclobutanol]
pIC50 (MOLM-13 cells): 5.36 | pIC50 (METTL3/14; [1]): 8.11

SMILES: O=C(NCc1cn2cc(CNCC3CCCCC3)ccc2n1)c1cc(=O)n2ccccc2n1 [Compound 72, N-[(6-{[(cyclohexyl-methyl)amino]methyl}imidazo [1,2-a]pyridin-2-yl)methyl]-4-oxo-4H-pyrido [1,2-a]pyrimidine-2-carboxamide]
pIC50 (MOLM-13 cells): 5.06

SMILES: O=C(NCc1cn2ccc(CNCC3CC3)cc2n1)c1cc(=O)n2ccccc2n1 [Compound 224, N-[(7-{[(cyclopropylmethyl)amino]methyl}imidazo[1,2-a]pyridin-2-yl)methyl]-4-oxo-4H-pyrido[1,2-a]pyrimidine-2-carboxamide]
pIC50 (METTL3/14; [2]): 5.73

SMILES: CC(=O)N(Cc1ccc2nc(CNC(=O)c3cc(=O)n4ccccc4n3)cn2c1)CC1CCC1 [Example 340, N-[(6-{[N-(cyclobutylmethyl)acetamido]methyl}imidazo[1,2-a]pyridin-2-yl)methyl]-4-oxo-4H-pyrido[1,2-a]pyrimidine-2-carboxamide]
pIC50 (METTL3/14; [1]): 5.17

SMILES: CCCNCc1ccc2nc(CNC(=O)c3cc(=O)n4ccccc4n3)cn2c1 [Compound 149, 4-oxo-N-({6-[(propylamino)methyl]imidazo [1,2-a]pyridin-2-yl}methyl)-4H-pyrido[1,2-a] pyrimidine-2-carboxamide]
pIC50 (METTL3/14; [2]): 7.40

SMILES: O=C(NCc1cn2cc(CN3CC(c4ccccn4)C3)ccc2n1)c1cc(=O)n2ccccc2n1 [Compound 134, 4-oxo-N-[(6-{[3-(pyridin-2-yl)azetidin-1-yl]methyl}imidazo[1,2-a]pyridin-2-yl)methyl]-4H-pyrido[1,2-a] pyrimidine-2-carboxamide]
pIC50 (METTL3/14; [2]): 6.36

SMILES: O=C(NCc1cn2cc(CNCCc3ccccc3)ccc2n1)c1cc(=O)n2ccccc2n1 [Compound 53, 4-oxo-N-[(6-{[(2-phenylethyl)amino]methyl}imidazo[1,2-a]pyridin-2-yl)methyl]-4H-pyrido[1,2-a]pyrimidine-2-carboxamide]
pIC50 (METTL3/14; [3]): 7.42 | pIC50 (METTL3/14; read-out: IC50): 7.57

SMILES: O=C(NCc1cn2cc(CNCCO)ccc2n1)c1cccc2[nH]ncc12 [Compound 45]
pIC50 (METTL3/14; [3]): 5.59

SMILES: O=C(NCc1cn2ccc(Br)cc2n1)c1cc(=O)n2ccccc2n1 [Compound 29, N-({7-bromoimidazo[1,2-a]pyridin-2-yl}methyl)-4-oxo-4H-pyrido[1,2-a]pyrimidine-2-carboxamide]
pIC50 (METTL3/14; [3]): 5.56

SMILES: O=C(NCc1cn2cc(C(O)c3ccccc3)ccc2n1)c1cccc2[nH]ncc12 (stereo not drawn) [Compound 48, N-({6-[hydroxy(phenyl)methyl]imidazo [1,2-a]pyridin-2-yl}methyl)-1H-indazole-4-carboxamide]
pIC50 (METTL3/14; [3]): 5.69

SMILES: O=C(NCc1cn2ccc(CNCCc3ccccc3)cc2n1)c1cc(=O)n2ccccc2n1 [Compound 243, 4-oxo-N-[(7-{[(2-phenylethyl)amino]methyl}imidazo[1,2-a]pyridin-2-yl)methyl]-4H-pyrido[1,2-a]pyrimidine-2-carboxamide]
pIC50 (METTL3/14; read-out: METTL3_14 RFMS IC50): 5.84

SMILES: COC(=O)C(NCc1ccc2nc(CNC(=O)c3cc(=O)n4ccccc4n3)cn2c1)C(C)C (stereo not drawn) [Compound 123, methyl 3-methyl-2-[({2-[({4-oxo-4H-pyrido[1,2-a]pyrimidin-2-yl}formamido)methyl]imidazo [1,2-a]pyridin-6-yl}methyl)amino] butanoate]
pIC50 (METTL3/14; [2]): 6.48

SMILES: Cc1ccc2nc(CNC(=O)c3cc(=O)c4ccccc4o3)cn2c1 [Compound 12, N-({6-methylimidazo[1,2-a]pyridin-2-yl}methyl)-4-oxo-4H-chromene-2-carboxamide]
pIC50 (METTL3/14; [3]): 5.85

SMILES: CC(C)(C)OC(=O)N1CCCC(CNCc2ccc3nc(CNC(=O)c4cc(=O)n5ccccc5n4)cn3c2)C1 (stereo not drawn) [Compound 100, tert-butyl 3-{[({2-[({4-oxo-4H-pyrido[1,2-a]pyrimidin-2-yl}formamido)methyl]imidazo [1,2-a]pyridin-6-yl}methyl)amino]methyl}piperidine-1-carboxylate]
pIC50 (METTL3/14; [2]): 5.86

SMILES: COc1ccn2cc(CNC(=O)c3cc(=O)n4ccccc4n3)nc2c1 [Compound 25, N-({7-methoxyimidazo[1,2-a]pyridin-2-yl}methyl)-4-oxo-4H-pyrido[1,2-a]pyrimidine-2-carboxamide]
pIC50 (METTL3/14; [3]): 6.27

SMILES: O=C(NCc1cn2cc(C(O)c3ccccc3)ccc2n1)c1cc(=O)n2ccccc2n1 (stereo not drawn) [Compound 56, N-({6-[hydroxy(phenyl)methyl]imidazo[1,2-a]pyridin-2-yl}methyl)-4-oxo-4H-pyrido[1,2-a]pyrimidine-2-carboxamide]
pIC50 (METTL3/14; [3]): 6.02
